Measured values published in PubChem BioAssay (NCI).
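Dose response: 5 concentrations. Exposure: 48 h. Format: 96-well plates. Endpoint: linear interpolation; highest concentration if not reached. At the GI50, growth is halved. TGI is the concentration that stops growth completely.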

Experiments:
Experiment in all cases: NCI tumour cell line growth inhibition, 48 h
COLO 205 colon = system: COLO 205 colon
OVCAR-3 ovarian = system: OVCAR-3 ovarian
KM12 colon = system: KM12 colon
MALME-3M melanoma = system: MALME-3M melanoma
BT-549 breast = system: BT-549 breast
MDA-MB-468 breast = system: MDA-MB-468 breast
ACHN renal = system: ACHN renal
SF-268 CNS = system: SF-268 CNS
NCI-H460 lung = system: NCI-H460 lung
LOX IMVI melanoma = system: LOX IMVI melanoma
SK-OV-3 ovarian = system: SK-OV-3 ovarian
RXF 393 renal = system: RXF 393 renal
A498 renal = system: A498 renal
OVCAR-5 ovarian = system: OVCAR-5 ovarian
SR leukemia = system: SR leukemia
DU-145 prostate = system: DU-145 prostate
NCI-H226 lung = system: NCI-H226 lung
OVCAR-8 ovarian = system: OVCAR-8 ovarian
HCT-116 colon = system: HCT-116 colon
CCRF-CEM leukemia = system: CCRF-CEM leukemia
SF-295 CNS = system: SF-295 CNS
HOP-92 NSCLC = system: HOP-92 NSCLC
K-562 leukemia = system: K-562 leukemia
RPMI-8226 leukemia = system: RPMI-8226 leukemia
SK-MEL-28 melanoma = system: SK-MEL-28 melanoma
T-47D breast = system: T-47D breast
CAKI-1 renal = system: CAKI-1 renal
SK-MEL-2 melanoma = system: SK-MEL-2 melanoma
OVCAR-4 ovarian = system: OVCAR-4 ovarian
TK-10 renal = system: TK-10 renal
MDA-MB-231 breast = system: MDA-MB-231 breast
HT29 colon = system: HT29 colon
SK-MEL-5 melanoma = system: SK-MEL-5 melanoma
NCI-H522 lung = system: NCI-H522 lung
A549 NSCLC = system: A549 NSCLC
HCT-15 colon = system: HCT-15 colon
HOP-62 NSCLC = system: HOP-62 NSCLC
MOLT-4 leukemia = system: MOLT-4 leukemia
NCI-H23 lung = system: NCI-H23 lung
786-0 renal = system: 786-0 renal
UACC-62 melanoma = system: UACC-62 melanoma
PC-3 prostate = system: PC-3 prostate
SF-539 CNS = system: SF-539 CNS
SW-620 colon = system: SW-620 colon
IGROV1 ovarian = system: IGROV1 ovarian
MDA-MB-435 = system: MDA-MB-435
HL-60(TB) leukemia = system: HL-60(TB) leukemia
SNB-19 CNS = system: SNB-19 CNS
UACC-257 melanoma = system: UACC-257 melanoma
SN12C renal = system: SN12C renal
M14 melanoma = system: M14 melanoma
MCF7 breast = system: MCF7 breast
U251 CNS = system: U251 CNS
HS 578T breast = system: HS 578T breast
UO-31 renal = system: UO-31 renal
EKVX NSCLC = system: EKVX NSCLC
HCC-2998 colon = system: HCC-2998 colon

SMILES: CN(C)c1nc(NCCNS(=O)(=O)c2ccc(C(=O)/C=C/c3ccc(C(F)(F)F)cc3)cc2)nc(N2CCOCC2)n1
- GI50 (COLO 205 colon): 15 µM
- TGI (COLO 205 colon): 32.4 µM
- GI50 (OVCAR-3 ovarian): 16.4 µM
- TGI (OVCAR-3 ovarian): 30.6 µM
- GI50 (KM12 colon): 8.95 µM
- TGI (KM12 colon): 25.5 µM
- GI50 (MALME-3M melanoma): 14.4 µM
- TGI (MALME-3M melanoma): 27.6 µM
- GI50 (BT-549 breast): 15.6 µM
- TGI (BT-549 breast): 29.3 µM
- GI50 (MDA-MB-468 breast): 5.11 µM
- TGI (MDA-MB-468 breast): 18.4 µM
- GI50 (ACHN renal): 8.6 µM
- TGI (ACHN renal): 20.7 µM
- GI50 (SF-268 CNS): 16.3 µM
- TGI (SF-268 CNS): 37.8 µM
- GI50 (NCI-H460 lung): 16.1 µM
- TGI (NCI-H460 lung): 32.5 µM
- GI50 (LOX IMVI melanoma): 1.68 µM
- TGI (LOX IMVI melanoma): 3.16 µM
- GI50 (SK-OV-3 ovarian): 14.7 µM
- TGI (SK-OV-3 ovarian): 29.5 µM
- GI50 (RXF 393 renal): 11.5 µM
- TGI (RXF 393 renal): 23.7 µM
- GI50 (A498 renal): 13.3 µM
- TGI (A498 renal): 26.6 µM
- GI50 (OVCAR-5 ovarian): 14.5 µM
- TGI (OVCAR-5 ovarian): 27.7 µM
- GI50 (SR leukemia): 6.31 µM
- TGI (SR leukemia): > 100 µM
- GI50 (DU-145 prostate): 15.4 µM
- TGI (DU-145 prostate): 28.9 µM
- GI50 (NCI-H226 lung): 16.1 µM
- TGI (NCI-H226 lung): 35.6 µM
- GI50 (OVCAR-8 ovarian): 14.4 µM
- TGI (OVCAR-8 ovarian): 28.1 µM
- GI50 (HCT-116 colon): 3.19 µM
- TGI (HCT-116 colon): 10 µM
- GI50 (CCRF-CEM leukemia): 3.2 µM
- TGI (CCRF-CEM leukemia): > 100 µM
- GI50 (SF-295 CNS): 8.11 µM
- TGI (SF-295 CNS): 20.6 µM
- GI50 (HOP-92 NSCLC): 15.2 µM
- TGI (HOP-92 NSCLC): 31.5 µM
- GI50 (K-562 leukemia): 3.21 µM
- TGI (K-562 leukemia): > 100 µM
- GI50 (RPMI-8226 leukemia): 1.77 µM
- TGI (RPMI-8226 leukemia): 5.72 µM
- GI50 (SK-MEL-28 melanoma): 14.4 µM
- TGI (SK-MEL-28 melanoma): 27.5 µM
- GI50 (T-47D breast): 5.5 µM
- TGI (T-47D breast): 27.2 µM
- GI50 (CAKI-1 renal): 11.4 µM
- TGI (CAKI-1 renal): 24.3 µM
- GI50 (SK-MEL-2 melanoma): 16.3 µM
- TGI (SK-MEL-2 melanoma): 30.4 µM
- GI50 (OVCAR-4 ovarian): 14.8 µM
- TGI (OVCAR-4 ovarian): 28.9 µM
- GI50 (TK-10 renal): 15.5 µM
- TGI (TK-10 renal): 29.5 µM
- GI50 (MDA-MB-231 breast): 11.7 µM
- TGI (MDA-MB-231 breast): 24.2 µM
- GI50 (HT29 colon): 2.06 µM
- TGI (HT29 colon): 4.51 µM
- GI50 (SK-MEL-5 melanoma): 15.8 µM
- TGI (SK-MEL-5 melanoma): 29.5 µM
- GI50 (NCI-H522 lung): 15.2 µM
- TGI (NCI-H522 lung): 29.8 µM
- GI50 (A549 NSCLC): 13.8 µM
- TGI (A549 NSCLC): 29.3 µM
- GI50 (HCT-15 colon): 1.86 µM
- TGI (HCT-15 colon): 3.62 µM
- GI50 (HOP-62 NSCLC): 17 µM
- TGI (HOP-62 NSCLC): 32.3 µM
- GI50 (MOLT-4 leukemia): 3.48 µM
- TGI (MOLT-4 leukemia): > 100 µM
- GI50 (NCI-H23 lung): 13 µM
- TGI (NCI-H23 lung): 26.2 µM
- GI50 (786-0 renal): 14.5 µM
- TGI (786-0 renal): 28.2 µM
- GI50 (UACC-62 melanoma): 11.2 µM
- TGI (UACC-62 melanoma): 23.3 µM
- GI50 (PC-3 prostate): 10.8 µM
- TGI (PC-3 prostate): 25.4 µM
- GI50 (SF-539 CNS): 13 µM
- TGI (SF-539 CNS): 25.7 µM
- GI50 (SW-620 colon): 3.3 µM
- TGI (SW-620 colon): 11.1 µM
- GI50 (IGROV1 ovarian): 1.77 µM
- TGI (IGROV1 ovarian): 3.51 µM
- GI50 (MDA-MB-435): 10.3 µM
- TGI (MDA-MB-435): 23 µM
- GI50 (HL-60(TB) leukemia): 5.12 µM
- TGI (HL-60(TB) leukemia): 86.3 µM
- GI50 (SNB-19 CNS): 13.5 µM
- TGI (SNB-19 CNS): 26.4 µM
- GI50 (UACC-257 melanoma): 15.3 µM
- TGI (UACC-257 melanoma): 29.4 µM
- GI50 (SN12C renal): 12.5 µM
- TGI (SN12C renal): 25 µM
- GI50 (M14 melanoma): 9.83 µM
- TGI (M14 melanoma): 22.2 µM
- GI50 (MCF7 breast): 1.68 µM
- TGI (MCF7 breast): 3.34 µM
- GI50 (U251 CNS): 2.95 µM
- TGI (U251 CNS): 11 µM
- GI50 (HS 578T breast): 17.8 µM
- TGI (HS 578T breast): 64.4 µM
- GI50 (UO-31 renal): 11.9 µM
- TGI (UO-31 renal): 24.2 µM
- GI50 (EKVX NSCLC): 14.3 µM
- TGI (EKVX NSCLC): 27.4 µM
- GI50 (HCC-2998 colon): 12.9 µM
- TGI (HCC-2998 colon): 26 µM
